Assay results as given in patent US20240390369A1, “METHODS FOR DETERMINING RESPONSIVENESS TO TYK2 INHIBITORS” (Bristol-Myers Squibb Company, priority 2021, published 2024).

Tests used:
[1] = system: patients with psoriatic arthritis; assay: Phase 2 trial in psoriatic arthritis: ACR20 response at week 16; type: in vivo, human
β-defensin 2 (BD2) = assay: Serum β-defensin 2 level over sixteen weeks of treatment (ELISA); type: in vivo, human; conditions: 12 mg QD treatment arm; sixteen-week treatment period (FIG. 43B)
Description: Levels of proteins in serum were measured at baseline and at various points during sixteen weeks of treatment with deucravacitinib. […] Levels of BD2 in serum samples were measured by ELISA; levels of IL-19 and IL-17A in serum were each measured by ultrasensitive Simoa technology.

Compound: [2H]C([2H])([2H])NC(=O)c1nnc(NC(=O)C2CC2)cc1Nc1cccc(-c2ncn(C)n2)c1OC [deucravacitinib, 6-(cyclopropanecarboxamido)-4-((2-methoxy-3-(1-methyl-1H-1,2,4-triazol-3-yl)phenyl)amino)-N-(methyl-d3)pyridazine-3-carboxamide]
- Interaction Term for ACR20 response (ratio of odds ratios) ([1]; adjusted for baseline DAS28, 12 mg QD vs placebo: IL-19-high versus IL-19-low): 7.37
- Odds Ratio for ACR20 response ([1]; adjusted for baseline DAS28, All patients, 6 mg QD vs placebo): 2.44
- Odds Ratio for ACR20 response ([1]; adjusted for baseline DAS28, BD2-high, 12 mg QD vs placebo): 7.33
- Odds Ratio for ACR20 response ([1]; adjusted for baseline DAS28, IL-17A-low, 12 mg QD vs placebo): 2.16
- Change from baseline in serum BD2 level, PASI75 responders versus non-responders (β-defensin 2 (BD2)): greater reductions in BD2 serum level were observed over time in the PASI75 responder group compared with the non-responder group
